Data on 30 compounds can be found in PubChem BioAssay AID1259408 (Genetic Toxicology Data Bank (GENE-TOX), 2018).

SMILES strings stand for the structures. Activity calls are given as the source filed them. No rule for the calls is given here.

This data set concerns GENE-TOX genotoxicity assays, various organisms and cells. The data set is described as follows: GENE-TOX mutagenicity studies. Conditions: for call: Assay Type: In vivo carcinogenicity studies. The source says:
GENE-TOX provides genetic toxicology (mutagenicity) test data from expert peer review of open scientific literature for more than 3,000 chemicals from the United States Environmental Protection Agency (EPA). GENE-TOX was established to select assay systems for evaluation, review data in the scientific literature, and recommend proper testing protocols and evaluation procedures for these systems.
GENE-TOX covers the years 1991 - 1998. It is no longer updated.
This is an archive assay for GENE-TOX mutagenicity studies.

[1] abbreviates: Species/Cell Type: Bacillus subtilis (H17 vs M45), Assay Type: Rec-assay, spot test, DNA effects (bacterial DNA repair), Assay Code: REWT, Evaluation Type: Evaluation A (Pre-1980).
[2] abbreviates: Species/Cell Type: Drosophila melanogaster, Assay Type: Sex-linked recessive lethal gene mutation, Assay Code: SRL+, Evaluation Type: Evaluation A (Pre-1980).
Where [3] appears, read: Species/Cell Type: Saccharomyces cerevisiae, Assay Type: Reverse gene mutation, Assay Code: YER+, Evaluation Type: Evaluation A (Pre-1980).
Where [4] appears, read: Species/Cell Type: Drosophila melanogaster, Assay Type: Sex-linked recessive lethal gene mutation, Assay Code: SRLT, Evaluation Type: Evaluation A (Pre-1980).
The mark [5] stands for this setting: Species/Cell Type: Salmonella typhimurium (one or more of the five standard strains: TA98, TA100, TA1535, TA1537, and TA1538), Assay Type: Histidine reverse gene mutation, Ames assay, Assay Code: SALT, Evaluation Type: Evaluation A (Pre-1980).
Where [6] appears, read: Species/Cell Type: Salmonella typhimurium (one or more of the five standard strains: TA98, TA100, TA1535, TA1537, and TA1538), Assay Type: Histidine reverse gene mutation, Ames assay, Assay Code: SAL+*, Activation: With metabolic activation, Evaluation Type: Evaluation A (Pre-1980).
[7] abbreviates: Species/Cell Type: Salmonella typhimurium (one or more of the five standard strains: TA98, TA100, TA1535, TA1537, and TA1538), Assay Type: Histidine reverse gene mutation, Ames assay, Assay Code: SAL+, Evaluation Type: Evaluation A (Pre-1980).
Where [8] appears, read: Species/Cell Type: Mammalian polychromatic erythrocytes, Assay Type: Micronucleus test, chromosome aberrations, Assay Code: MNT+, Evaluation Type: Evaluation B (Post-1980).

Turning to `Cc1c(C2(c3cc(C(C)C)c(O)c(Br)c3C)OS(=O)(=O)c3ccccc32)cc(C(C)C)c(O)c1Br`, under setting [1], the mutagenic call is listed as “no conclusion”.
For `C/C=C/C=C/C#C/C=C/C=C/CCCCCOC(C)=O`, the mutagenic call (Species/Cell Type: Nonhuman, Assay Type: Sister-chromatid exchange (SCE) in vitro, Assay Code: SC2T, Evaluation Type: Evaluation B (Post-1980)) is on record as “no conclusion”.
On to `CC(=O)N(C)N=O`, for which the mutagenic call under setting [2] is “active; positive”; the mutagenic call (Species/Cell Type: Drosophila melanogaster, Sex: Male, Assay Type: Heritable translocation test, chromosome aberrations, Assay Code: DHTT, Evaluation Type: Evaluation A (Pre-1980)) is reported as “no conclusion”; the mutagenic call (Species/Cell Type: Saccharomyces cerevisiae, Assay Type: Forward gene mutation, Assay Code: YEF+, Evaluation Type: Evaluation A (Pre-1980)) is “active; positive”; the mutagenic call under setting [3] is “active; positive”.
`CN(CC(=O)OC[C@H](N)C(=O)O)N=O`: the mutagenic call by setting is: (Species/Cell Type: Escherichia coli polA (W3110 vs P3478), Assay Type: Rec-assay, DNA effects (bacterial DNA repair), Assay Code: RE2+, Evaluation Type: Evaluation A (Pre-1980)) “active; positive”; (Species/Cell Type: Escherichia coli polA (W3119 vs P3478), Assay Type: Rec-assay, DNA effects (bacterial DNA repair), Assay Code: RE1T, Evaluation Type: Evaluation A (Pre-1980)) “no conclusion”.
Regarding `CN=NNc1c(Cl)cc(Cl)cc1Cl`, the mutagenic call under setting [4] is reported as “no conclusion”.
`Cc1c2ccccc2c(C)c2c1c(O)c(O)c1ccccc12`: the mutagenic call (Species/Cell Type: Chinese hamster lung (V79) cells, Assay Type: Forward gene mutation at the HPRT or ouabain locus, Assay Code: V79-*, Activation: With metabolic activation, Evaluation Type: Evaluation A (Pre-1980)) is “inactive; negative”. Besides, the call (Species/Cell Type: Nonhuman, Assay Code: CCGT, Evaluation Type: Evaluation A (Pre-1980)) is “no conclusion”.
Take `CNC(=O)Nc1nc(-c2ccc(OC)cc2)cs1`: where the note is “Species/Cell Type: Salmonella typhimurium, Assay Type: Forward and reverse gene mutation, host-mediated assay, Assay Code: HMAT, Evaluation Type: Evaluation A (Pre-1980)”, the mutagenic call is reported as “no conclusion”.
Turning to `CC[C@@]1(O)C[C@H](O[C@H]2C[C@H](N(C)C)[C@H](O[C@H]3C[C@H](O)[C@H](O[C@H]4CCC(=O)[C@H](C)O4)[C@H](C)O3)[C@H](C)O2)c2c(cc3c(c2O)C(=O)c2c(O)cccc2C3=O)[C@H]1C(=O)OC`, the mutagenic call under setting [5] was “no conclusion”.
With `O=C(O)C(F)(F)F`, the mutagenic call under setting [5] was “no conclusion”.
Take `CCOC(=O)CSc1ccc2c3c(cccc13)C(=O)c1ccccc1-2`: under setting [6], the mutagenic call was “active; positive”.
`Cc1c(N)nc(C(CC(N)=O)NCC(N)C(N)=O)nc1C(=O)NC(C(=O)NC(C)C(O)C(C)C(=O)NC(C(=O)NCCc1nc(-c2nc(C(=O)NCCC[S+](C)C)cs2)cs1)C(C)O)C(O[C@@H]1O[C@@H](CO)[C@@H](O)[C@H](O)[C@@H]1O[C@H]1O[C@H](CO)[C@@H](O)[C@H](OC(N)=O)[C@@H]1O)c1cnc[nH]1` (stereo partly specified): the mutagenic call was “no conclusion” (Species/Cell Type: Human lymphocytes, Assay Type: Sister-chromatid exchange (SCE) in vitro, Assay Code: SCLT, Evaluation Type: Evaluation B (Post-1980)); “no conclusion” (Species/Cell Type: Human, Assay Type: Sister-chromatid exchange (SCE) in vitro, Assay Code: SC1T, Evaluation Type: Evaluation B (Post-1980)); “active; positive” (Species/Cell Type: Saccharomyces cerevisiae, Assay Type: Mitotic recombination or gene conversion, Assay Code: YEC+, Evaluation Type: Evaluation A (Pre-1980)); “active; positive” (Species/Cell Type: Saccharomyces cerevisiae, Assay Type: Mitotic recombination or gene conversion, Assay Code: YEH+, Evaluation Type: Evaluation A (Pre-1980)); “active; positive” under setting [3].
Regarding `CCCCCN(CCCCO)N=O`, the mutagenic call under setting [6] was “active; positive”.
On to `Nc1ccc2nc3ccccn3c2n1`, for which the mutagenic call is “active; positive” (Species/Cell Type: Human lymphocytes, Assay Type: Sister-chromatid exchange (SCE) in vitro, Assay Code: SCL+D, Dose Response: With dose response, Evaluation Type: Evaluation B (Post-1980)) and “active; positive” (Species/Cell Type: Human, Assay Type: Sister-chromatid exchange (SCE) in vitro, Assay Code: SC1+D, Dose Response: With dose response, Evaluation Type: Evaluation B (Post-1980)).
For the compound `N#CS`, the mutagenic call is “inactive; negative” (Species/Cell Type: Glycine max (soybean), Assay Type: Gene mutation, Assay Code: GLM-, Evaluation Type: Evaluation A (Pre-1980)) and “no conclusion” under setting [5].
Turning to `COc1ccc(N2CCN(c3ccc([N+](=O)[O-])c4no[n+]([O-])c34)CC2)cc1`, the mutagenic call under setting [7] is “active; positive”.
For `C=CCn1c(Cl)c(CC)c(=O)n(CC)c1=O`, under setting [4], the mutagenic call is “no conclusion”.
As for `CN(C)CCOc1ccc2c(c1)CC/C(=C\c1ncc([N+](=O)[O-])n1C)C2=O`, the mutagenic call (Species/Cell Type: Neurospora crassa, Assay Type: Forward gene mutation, Assay Code: NEF+, Evaluation Type: Evaluation A (Pre-1980)) is “active; positive” and the mutagenic call (Species/Cell Type: Neurospora crassa, Assay Type: Reverse gene mutation, Assay Code: NER+, Evaluation Type: Evaluation A (Pre-1980)) was “active; positive”.
Consider `CN=c1ccc2cc3ccc(NC)cc3oc-2c1`, for which the mutagenic call under setting [4] is “no conclusion”.
With `OCCN(CCO)c1nc(-c2cccs2)nc2ccccc12`, the mutagenic call under setting [5] is “no conclusion”.
Regarding `CS(=O)(=O)OCC#CCOS(C)(=O)=O`, the mutagenic call under setting [2] is “active; positive”.
Consider `O=S(=O)(O)c1ccc(N=Nc2c(O)ccc3ccccc23)cc1`, for which the mutagenic call reads like this: under setting [1], “no conclusion”; under setting [5], “no conclusion”.
As for `CC(=O)[O-].CC(=O)[O-].CC(=O)[O-].[Sb+3]`, where the note is “Species/Cell Type: Syrian hamster embryo (SA7/SHE) cells, Assay Type: Cell transformation, viral enhanced, Assay Code: CT7+, Evaluation Type: Evaluation A (Pre-1980)”, the mutagenic call is “active; positive”.
`CCCCC1C(=O)N(c2ccccc2)N(c2ccccc2)C1=O`: the mutagenic call was “inactive; negative” (Species/Cell Type: Mammalian germ cells, Sex: Male, Assay Type: Chromosome aberrations in vivo, Assay Code: CY9-, Evaluation Type: Evaluation A (Pre-1980)); “active; positive” under setting [8]; “no conclusion” (Species/Cell Type: Mammalian polychromatic erythrocytes, Assay Type: Micronucleus test, chromosome aberrations, Assay Code: MNTT, Evaluation Type: Evaluation A (Pre-1980)); “inactive; negative” (Species/Cell Type: Rodents, Sex: Male, Assay Type: Dominant lethal test, Assay Code: DLT-, Evaluation Type: Evaluation A (Pre-1980)); “no conclusion” under setting [5].
For the compound `CCCCOc1ccc(CC(=O)NOS(=O)(=O)O)cc1`, the mutagenic call (Species/Cell Type: Nonhuman, Assay Type: Sister-chromatid exchange (SCE) in vitro, Assay Code: SC2+, Evaluation Type: Evaluation B (Post-1980)) is “active; positive”.
On to `CC1=CCc2c1c(C)c(C)c1c2ccc2ccccc21`, for which the mutagenic call under setting [6] is “active; positive”.
Take `O=C(COc1ccc(Br)cc1CN1CCCCC1)N/N=C\c1ccccc1`: the mutagenic call (Species/Cell Type: Saccharomyces cerevisiae, Assay Type: Reverse gene mutation, Assay Code: YERT, Evaluation Type: Evaluation A (Pre-1980)) was “no conclusion”.
In the case of `CC(=O)Nc1ccc2c(ccc3ccccc32)c1`, the mutagenic call (Species/Cell Type: Human diploid fibroblasts, Assay Type: Unscheduled DNA synthesis (UDS) in vitro, DNA effects, Assay Code: UDH-, Evaluation Type: Evaluation A (Pre-1980)) is “inactive; negative”. The call (Species/Cell Type: Nonhuman, Assay Code: CCG+L, Evaluation Type: Evaluation A (Pre-1980)) is “active; positive”.
Regarding `O=C(NOS(=O)(=O)O)c1ccc2ccccc2c1`, the mutagenic call (Species/Cell Type: Nonhuman, Assay Type: Sister-chromatid exchange (SCE) in vitro, Assay Code: SC2+D, Dose Response: With dose response, Evaluation Type: Evaluation B (Post-1980)) is “active; positive”.
In the case of `COc1ccc([N+](=O)[O-])cc1N`, the call (Species/Cell Type: Nonhuman, Assay Code: CCG+, Evaluation Type: Evaluation A (Pre-1980)) was “active; positive”. The mutagenic call under setting [7] is “active; positive”.
As for `CCN(CC)C(=O)/C(Cl)=C(\C)OP(=O)(OC)OC`, the mutagenic call by setting is: (Species/Cell Type: Hordeum vulgare (barley), Assay Type: Chromosome aberrations, Assay Code: HOC+D, Dose Response: With dose response, Evaluation Type: Evaluation A (Pre-1980)) “active; positive”; under setting [8], “active; positive”; (Species/Cell Type: Vicia faba, Assay Type: Chromosome aberrations, Assay Code: VIC+, Evaluation Type: Evaluation A (Pre-1980)) “active; positive”.
